Data: patent US20250169496A1, “USE OF 2-AMINO-3-HYDROXY-3-METHYLBUTYRIC ACID AND/OR 2-AMINO-3-(4-HYDROXYPHENYL) BUTYRIC ACID” (NANJING TIANNONG BIOTECHNOLOGY CO., LTD., priority 2021, published 2025)
Values joined by “and” are separate entries in the source; they are usually repeats but may differ in a detail not shown here. Identical values can stand only once.

What was measured:
[1] = test system: Pseudomonas syringae PstDC3000; test: Induced resistance of Arabidopsis to infection of Pseudomonas syringae; type: in vivo; conditions: for Disease index: Arabidopsis 3 d after PstDC3000 inoculation; for CFU/mg (number of bacteria per mg of leaves): Arabidopsis leaves 3 d after PstDC3000 inoculation; for Decrease of disease index / Decrease of number of bacteria per mg of leaves: compared to blank control
Procedure: Take 2-amino-3-hydroxy-3-methylbutyric acid, dissolve it in sterile water, dilute the solution with sterile water by gradient into 100 nM, 1,000 nM and 10,000 nM solutions, set a blank control, and meanwhile add 0.02% Tween 20 as a surfactant. Spread Pseudomonas syringaePstDC3000 on an LB plate, and culture it at 28° C. for 48h; pick a monoclonal colony, inoculate it in a 50 mL centrifuge tube containing 2 mL of medium, culture it on a shaker at 28° C., 250 rpm, monitor changes of OD600 of the bacterial solution once every 1-2 h, and stop bacteria culturing before OD600 reaches 0.8; transfer 1 mL of the bacterial solution to a sterile 1.5 mL centrifuge tube, centrifuge it at 8000 rpm for 2 min, and collect the precipitate; remove the supernatant, wash the precipitate with 10 mM magnesium chloride for three times and centrifuge, lastly re-suspend PstDC3000 in the 10 mM magnesium chloride until its OD600 reaches 0.001, and keep it for future use. Soake Arabidopsis seeds in 75% alcohol for 3 min, then wash them with sterile water for 4 times, inoculate it in culture dishes filled with ½ MS medium, 12 seeds per dish, vernalize the ½ MS culture dishes containing seeds at 4° C. for 3 d to break dormancy, then put them in a 22° C. culture room with luminous intensity of 100μE m^−2s-^1(16 hillumination/8 h darkness), slowly pour the above 2-amino-3-hydroxy-3-methylbutyric acid at different concentrations into the culture dishes until the entire Arabidopsis seedlings are submerged after the seedlings have grown for 2 weeks, maintain this state for 2-3 minutes, and then pour the treatment solution out of the culture dishes, treat it once every 24 h, twice in total, inoculate PstDC3000 suspension (OD600=0.01) to Arabidopsis leaves by the same submerging method 24 h after the second treatment, seal the culture dishes with medical breathable adhesive after the inoculation, put them in the culture room for continued culturing. 3 d after, determine the number of bacteria after different treatments, observe the morbidity of Arabidopsis, and calculate the disease index by the method same as the disease index calculation formula in Embodiment 2.
Grading standard of diseases caused by PstDC3000(with leaf as a unit): • Level 0: No disease spot on the leaf surface; • Level 1: The area of the disease spots accounts for 0%-10% of the whole leaf area; • Level 2: The area of the disease spots accounts for 10%-25% of the whole leaf area; • Level 3: The area of the disease spots accounts for 25%-50% of the whole leaf area; • Level 4: The area of the disease spots accounts for 50%-75% of the whole leaf area; • Level 5: The area of the disease spots accounts for […] of the whole leaf area.

wheat powdery mildew = test: Field test of induced resistance of wheat to powdery mildew; type: in vivo; conditions: 1,000 nM; for Thousand kernel weight: dried harvested wheat seeds; for Relative immune effect: vs additive control
Procedure: Spraya 2-amino-3-hydroxy-3-methylbutyric acid solution (surfactant Tween 20 (0.02% (v/v) is added) at a concentration of 1,000 nM on stems and leaves in the field of Jiangsu Academy of Agricultural Sciences, use surfactant Tween 20 with a spray volume percent of 0.02% as an additive control, Atailing with 30 g sprayed per mu as a positive control, and repeat each treatment for three times. Investigate the wheat morbidity level of each treatment, record the morbidity level according to the wheat powdery mildew grading standard in the Pesticide—Guidelines for the Field Efficacy Trials(I) and calculate the disease index and relative immune effect by the calculation method same as that for the disease index and relative immune effect of tomato spotted wilt. After drying of the harvested wheat seeds, determine the thousand kernel weight of the wheat seeds under different treatments. The wheat powdery mildew grading standard (with leaf as a unit): • Level 1: The area of the disease spots accounts for less than 5% of the whole leaf area; • Level 3: The area of the disease spots accounts for 6%-15% of the whole leaf area; • Level 5: The area of the disease spots accounts for 16%-25% of the whole leaf area; • Level 7: The area of the disease spots accounts for 26%-50% of the whole leaf area; • Level 9: The area of the disease spots accounts for more than 50% of the whole leaf area.

[2] = test system: wheat under drought stress; test: Hydroponic wheat under drought stress (25% PEG-6000); type: in vivo; conditions: for Drought damage index / Dry weight, overground part / Dry weight, underground part / Fresh weight, overground part / Fresh weight, underground part / Root length: wheat, 6 d 25% PEG-6000, recovered 7 d; for Decrease of drought damage index / Increase of fresh weight of the overground part / Increase of fresh weight of the underground part / Increase of root length of wheat seedlings: compared to the control, drought stress
Procedure: Use a 6-mesh screen as a container for hydroponic culture of wheat, 50 grains per screen, replace the ½ Hoagland nutrient solution once every two days, spray 2-amino-3-hydroxy-3-methylbutyric acid solutions at2-amino-3-hydroxy-3-methylbutyric acid concentrations of 0, 100 and 1,000 nM when the wheat grows to the stage of two leaves and one shoot, and meanwhile, add 0.02% Tween 20 as a surfactant; after two days of continuous spray, replace the hydroponic nutrient solution with a ½ Hoagland nutrient solution containing 25% PEG-6000 for stress treatment,rewater after 6 d of drought stress, recover growth in a normal nutrient solution for 7 d, then observe and determine the drought damage index, and determine the root length and biomass.
The manifestation features after drought damage of leaves are similar to those after salt damage. By taking reference to the salt damage evaluation indexes, drought damage rate and drought damage index are introduced.

cotton under salt stress = test: Hydroponic cotton under salt stress (100 mM NaCl); type: in vivo, cotton (Si Kang 1#); conditions: 100 mM NaCl for three days
Procedure: The experimental material is “Si Kang 1#” cotton. Use 500 mL plastic cups for hydroponic culture and replace the ½Hoagland nutrient solution once every two days. Spray a 2-amino-3-hydroxy-3-methylbutyric acid solution on the leaf surface when the cotton seedlings grow until the second true leaf is fully open, set the concentrations at 0, 1, 10, 100 and 1,000 nM in the experiment, and add 0.02% Tween 20 as a surfactant. Spray once every 24 h, twice in total, add NaCl to the ½Hoagland nutrient solution on the second day after treatment to make its final concentration be 100 mM, and conduct salt stress treatment. Repeat each treatment three times. Rewater after three days of salt stress, observe the salt damage symptoms of cotton, and calculate the salt damage index by the following formula: […]

Row | Structure (SMILES) | Disease index ([1]; 100 nM) [b] | CFU/mg (number of bacteria per mg of leaves) ([1]; 100 nM) | Decrease of disease index ([1]; 100 nM) [%] | Decrease of number of bacteria per mg of leaves ([1]; 100 nM) [%] | Disease index ([1]; 1,000 nM) | CFU/mg (number of bacteria per mg of leaves) ([1]; 1,000 nM) | Decrease of disease index ([1]; 1,000 nM) [%] | Decrease of number of bacteria per mg of leaves ([1]; 1,000 nM) [%] | Decrease of disease index ([1]; 10,000 nM) [%] | Decrease of number of bacteria per mg of leaves ([1]; 10,000 nM) [%] | Thousand kernel weight (wheat powdery mildew) | Relative immune effect (wheat powdery mildew) [%] | Drought damage index ([2]; 100 nM) [%] | Dry weight, overground part ([2]; 100 nM) | Dry weight, underground part ([2]; 100 nM) [a g] | Fresh weight, overground part ([2]; 100 nM) [b g] | Fresh weight, underground part ([2]; 100 nM) [b g] | Root length ([2]; 100 nM) [a cm] | Decrease of drought damage index ([2]; 1,000 nM) [%] | Increase of fresh weight of the overground part ([2]; 1,000 nM) [%] | further results
1 | CC(c1ccc(O)cc1)C(N)C(=O)O (stereo not shown) [2-amino-3-(4-hydroxyphenyl) butyric acid] | 40.06 ± 0.98 | 4.43 × 10^5 CFU/mg | 51.11 | 86.20 | 36.81 ± 0.28 c | 3.04 × 10^5 CFU/mg | 55.07 | 90.53 | 66.84 | 91.37 | 37.92 g and 37.92 ± 0.21 a g | 47.28 | 47 | 0.83 ± 0.01a g | 0.36 ± 0.01 | 7.34 ± 0.18 | 3.70 ± 0.03 | 14.02 ± 0.03 | 49 | 45.66 | Increase of fresh weight of the underground part ([2]; 1,000 nM): 57.93%; Increase of root length of wheat seedlings ([2]; 1,000 nM): 11.47%; Drought damage index ([2]; 1,000 nM): 25%; Dry weight, overground part ([2]; 1,000 nM): 0.93 ± 0.05a g; Dry weight, underground part ([2]; 1,000 nM): 0.39 ± 0.01a g; Fresh weight, overground part ([2]; 1,000 nM): 8.90 ± 0.15a g; Fresh weight, underground part ([2]; 1,000 nM): 4.58 ± 0.01a g; Root length ([2]; 1,000 nM): 14.67 ± 007a cm; Death rate (cotton under salt stress; 1 nM): 48%; Salt damage index (cotton under salt stress; 1 nM): 64%; Death rate (cotton under salt stress; 10 nM): 45%; Salt damage index (cotton under salt stress; 10 nM): 56%; Death rate (cotton under salt stress; 100 nM): 30%; Salt damage index (cotton under salt stress; 100 nM): 52%; Death rate (cotton under salt stress; 1,000 nM): 29%; Salt damage index (cotton under salt stress; 1,000 nM): 43%
2 | CC(C)(O)C(N)C(=O)O (stereo not shown) [2-amino-3-hydroxy-3-methylbutyric acid] | 40.90 ± 2.41 | 9.46 × 10^5 CFU/mg | 43.22 | 70.34 | 38.90 ± 1.96 b | 7.11 × 10^5 CFU/mg | 45.60 | 77.71 | 58.07 | 88.06 | 32.61 g and 32.61 ± 0.18 a g | 38.74 | 45 | 0.80 ± 0.01b g | 0.33 ± 0.01 | 7.27 ± 0.02 | 3.65 ± 0.01 | 13.94 ± 0.03 | 51 | 44.92 | CFU/mg (number of bacteria per mg of leaves) ([1]; 10,000 nM): 3.81×10^5 CFU/mg; Increase of fresh weight of the underground part ([2]; 1,000 nM): 55.02%; Increase of root length of wheat seedlings ([2]; 1,000 nM): 11.30%; Drought damage index ([2]; 1,000 nM): 26%; Dry weight, overground part ([2]; 1,000 nM): 0.92 ± 0.05a g; Dry weight, underground part ([2]; 1,000 nM): 0.37 ± 0.01a g; Fresh weight, overground part ([2]; 1,000 nM): 8.84 ± 0.09a g; Fresh weight, underground part ([2]; 1,000 nM): 4.48 ± 0.02a g; Root length ([2]; 1,000 nM): 14.58 ± 0.01a cm; Death rate (cotton under salt stress; 1 nM): 51%; Salt damage index (cotton under salt stress; 1 nM): 66%; Death rate (cotton under salt stress; 10 nM): 47%; Salt damage index (cotton under salt stress; 10 nM): 58%; Death rate (cotton under salt stress; 100 nM): 34%; Salt damage index (cotton under salt stress; 100 nM): 54%; Death rate (cotton under salt stress; 1,000 nM): 30%; Salt damage index (cotton under salt stress; 1,000 nM): 48%
